Test results reported in patent US8927499B2, “Glycine derivative capable of inhibiting melanin formation and composition using the same” (Corum Inc., priority 2010, dated 2015).
Where a SMILES comes first, the peptide text is derived from it. [ ]: non-standard residue; d: D form. Sar = CNCC(=O)O

Experiments:
[1] = test system: B16-F10 cells; assay: Melanogenesis inhibition test; format: cell-based, Mus musculus; conditions: 3 days, OD 405 nm, tyrosine + α-MSH stimulated
Protocol: Melanogenesis Inhibition Test In the melanogenesis inhibition test, Kojic acid is used as the positive control. Compounds (II), (III), and (IV) and ascorbic acid derivative are evaluated regarding their whitening effect under a concentration of no cytotoxicity to test the melanogenesis inhibiting ability. B16-F10 B16-F10 cells are placed in a 96-well plate and each well comprises 5000 cells (5000 cells/well). The cells are incubated at 37° C. in 5% CO2 and 10% FBS DMEM (Fetal Bovine Serum Dulbecco's modified Eagle's medium) overnight to allow the cells to attach to the wells. Melanin production rate (%) is defined by the following equation: [formula] where ODT represents the optical density of the test sample at the wavelength 405 nm by the spectrophotometer; ODB represents the optical density of the blank control at 405 nm; ODN represents the optical density of the negative control at 405 nm. The negative control comprises 0.1 mg/ml of tyrosine and 1 μM of α-MSH (α-melanocyte stimulating hormone). The blank control comprises 0.1 mg/ml of tyrosine but no α-MSH. The test sample is prepared by stocking 5 wt % of compound (II), (III), or (IV) in phenol red free DMEM and 5 wt % FBS no phenol red DMEM with 0.1 mg/ml tyrosine and 1 μM α-MSH is prepared and filtered by a 0.22 μm filter. 0.1 mg/ml tyrosine may cause the medium over saturated and thus centrifugal filtration is required. The testing sample was prepared in the medium mentioned above. Until cells were at full confluence, they were treated with test samples and reference samples (prepared above) 100 μL each well for 3 days. After 3 days incubation, 100 μL 1N NaOH is added in each well. The solution is placed on a shaking table at least 10 minutes. The optical density of the test sample at 405 nm is measured. The positive control is Kojic acid (500 ppm concentration). Based on student's t-test, the P value is less than 0.05.

[2] = Color stability test (accelerated, 45° C. oven); format: physicochemical
Protocol: The test samples (compounds (II), (III), and (IV)) and the reference sample are separately dissolved in water and a buffer solution with pH=6 to prepare 0.5 wt % solutions. The buffer solution with pH=6 is a mixture solution of 3.8 ml 0.1M citric acid and 16.2 ml citrate. […] of a test sample are dissolved in the mixture solution to prepare a 0.5 wt % solution. Then, the solutions are placed in a 45° C. oven to perform an accelerated color stability test. After 14 and 28 days, the spectrophotometer is used to measure the light transmittance of these solutions at 440 nm.

[3] = test system: 3T3 (Swiss albino mouse fibroblast) cells; assay: Cytotoxicity test by MTT assay (3T3); format: cell-based; conditions: 3T3 and B16-F10 cells, compared with ascorbic acid derivative known to have no apparent cytotoxicity
Protocol: The cytotoxicity test is evaluated by MTT assay.

[4] = 0.5 wt % aqueous solution, 14 days
[5] = 0.5 wt % aqueous solution, 28 days
[6] = 0.5 wt % in citric acid buffer solution pH = 6, 14 days
[7] = 0.5 wt % in citric acid buffer solution pH = 6, 28 days

Row | SMILES | melanin production rate % ± standard deviation ([1]; sample concentration 0.2%) | melanin production rate % ± standard deviation ([1]; sample concentration 0.4%) | Transmittance % (440 nm) [2, 4] | Transmittance % (440 nm) [2, 5] | safety of using (cytotoxicity) [3] | Transmittance % (440 nm) [2, 6] | Transmittance % (440 nm) [2, 7]
1 | O=C1O[C@H]([C@@H](O)CO)C(O)=C1O[C@H]1O[C@H](CO)[C@@H](O)[C@H](O)[C@H]1O [ascorbic acid 2-glucoside (AA2G), ascorbic acid 2-glucoside] | 86.8 ± 3.4% | 76.2 ± 10.5% | 97.8% | 96.9% |  |  | 
2 | CC(=O)NCC(=O)NCCC(=O)O [Compound (II), 3(2-acetylamino-acetylamino)-propionic acid] | 64.7 ± 12.8% | 11.0 ± 2.9% | 98.9% | 99.8% | the same as that of ascorbic acid derivative | 99.4% | 99.3%
3 | OC[C@H]1O[C@@H](Oc2ccc(O)cc2)[C@H](O)[C@@H](O)[C@@H]1O [arbutin] |  |  | 96.7% | 95.4% |  |  | 
4 | CCOC1=C(O)C(=O)O[C@@H]1[C@@H](O)CO [ethyl ascorbic acid] | 86.4 ± 2.6% | 78.9 ± 6.3% |  |  |  | 98.6% | 97.5%
5 | O=C1O[C@H]([C@@H](O)CO)C(O)=C1OP(=O)([O-])[O-].[Mg+2] [ascorbic acid 2-phosphate magnesium] | 105.3 ± 3.4% | 88.4 ± 11.4% |  |  |  | 85.6% | 80.9%
6 | O=C1O[C@H]([C@@H](O)CO)C(O)=C1O [Ascorbic acid] |  |  | 37.8% | 20.8% |  | 0.7% | 2.1%
7 | CC(=O)NCC(=O)N(C)CC(=O)O [Compound (IV), [(2-Acetylamino-acetyl)-methyl-amino]-acetic acid] (Ac-Gly-[Sar]-OH) | 60.8 ± 22.3% | 15.0 ± 5.6% | 99.7% | 100% | the same as that of ascorbic acid derivative | 100% | 100%
8 | O=c1cc(CO)occ1O [Kojic acid] |  |  | 94.9% | 81% |  | 34.8% | 4.0%
9 | CC(=O)NCC(=O)NCCCC(=O)O [Compound (III), 4-(2-Acetylamino-acetylamino)-butyric acid] | 70.4 ± 10.0% | 14.2 ± 3.0% | 99.6% | 99.5% | the same as that of ascorbic acid derivative | 100% | 99.9%
10 | NCCC(=O)N[C@@H](Cc1cnc[nH]1)C(=O)O [carnosine] | 129 ± 1.7% | 141 ± 10.5% |  |  |  |  | 
